Assay results: US11571485B2, “Peptides and antibodies for detecting changes in alzheimer's disease brain and methods of use thereof” (Sanford Burnham Prebys Medical Discovery Institute, priority 2016, dated 2023)
Bridges are numbered along the chain shown (N, C = ends). FAM = fluorescein-amide / fluoresceinamine label

Key:
[1] = system: hippocampus of hAPP-J20 AD and wild-type mice; test: In vivo CX7C T7 phage library screen, sequencing of phage recovered from hippocampus; set-up: species or system mouse; conditions: for Frequency/%: hippocampus 30 min after i.v. phage library, high throughput sequencing of inserts; for Representation in sequenced phage pools, AD versus normal brain: 9-month AD mouse vs normal mouse hippocampus
Description: In vivo phage screening was conducted using a T7 phage library expressing random peptides with the composition of CXnC (C=cysteine; X=any amino acid; n=7). The mouse model used for this screening is the hAPP-J20 that expresses amyloid precursor protein (APP) with both the Swedish and Indiana mutations (Murrell et al., Science 254, 97-99. (1991); Mullan et al., Nat. Genet. 1, 345-347. (1992)). Peptides homing to the hippocampus of these mice was the focus because the hippocampal region is where the AB-related lesions and damage are most prevalent early on in the disease.
A CX7C phage library was intravenously injected into 9 month-old AD and wild-type (WT) littermate mice, and allowed to circulate for 30 min, after which mice were perfused with saline, brains were collected, and the hippocampal region was dissected and subjected to phage titration and high throughput sequencing of the phage inserts. A surprise result was that the number of phage recovered from the AD hippocampus samples was much higher than the number recovered from a similar screen on normal littermates of the AD mice (FIG. 1A). […] BBB leakage has also been reported in AD patients.
Parallel phage library screens were performed on a normal mouse and a 9-month old AD transgenic mouse (J20 hAPP tg mouse line, which expresses transgenic amyloid precursor protein with two disease-related mutations). The library was intravenously injected into anesthetized mice and the hippocampal area of the brain was collected 30 min after intravenous injection of the library, phage was isolated from the tissue samples and subjected to high throughput sequencing of the peptide-encoding inserts in the phage DNA. Table 1 list most abundantly represented peptide from the two kinds of brains, and all peptides with significant representation in the AD brain and absent or nearly absent in the normal brain are listed in Table 2. Two peptides, CASPRLSKC (SEQ ID NO: 3) and CESPLLSEC (SEQ ID NO: 11), from among the highest scoring ones were subjected to detailed studies as described below.
hAPP-J20 mice were intravenously injected with 1e10 pfu of a CX7C (wherein X is any amino acid) naïve phage library, in 100 μL of PBS. The library was allowed to circulate for 30 minutes, after which mice were anesthetized with 2.5% avertin and perfused with PBS intracardially. The brain was removed and the hippocampus was extracted and homogenized in LB-NP 40 (1%) and phage was processed as described (Teesalu et al., Methods Enzymol 503, 35-56 (2012)). The phages in the lysate were rescued by amplification in E. coli and peptide-encoding portion of the phage genome was sequenced using Ion Torrent high throughput sequencing.

[2] = system: hAPP-J20 mouse brain (hippocampus); conditions: i.v., 30 min circulation, 9-month-old AD (hAPP-J20) vs normal/WT mice
Description: The synthetic peptides were labeled with FAM and 100 nmol and were intravenously injected to 9-month old AD mice through the tail vein. The peptides were allowed to circulate for 30 min, after which the mice were perfused with 20 ml of PBS, the brains were collected and snap-frozen in OCT for sectioning. The peptides were detected by anti-FAM staining (green), nuclei were stained with DAPI (blue), and anti-CD31 was used to visualize blood vessels.
For peptide homing, mice were intravenously injected with 50 nmole peptide dissolved in PBS, and allowed to circulate for 30 min. Mice were then perfused intracardially with saline and all major organs were isolated and fixed in 4% paraformaldehyde (PFA) at pH 7.4 overnight. The organs were then washed with PBS and placed in graded sucrose solutions overnight before optimal cutting temperature compound (OCT) embedding. Ten-micro-meter-thick sections were cut and analyzed by immunostaining.
Frozen sections were permeabilized using PBS- 0.2% Triton™ X-100 (PBST), blocking was carried out using blocking buffer (5% BSA, 1% goat serum, 1% donkey serum in PBST. Primary antibodies were incubated in diluted (1%) blocking buffer overnight at dilutions 1/100 or 1/200 at 4° C., washed with PBST and incubated with secondary antibodies diluted 1/200 or 1/500 in 1% diluted buffer for 1 hour at room temperature, subsequently washed with PBST, counterstained with DAPI 1 μg/mL in PBS for 5 minutes, washed with PBS, mounted using aqueous mounting media (Vector Biolabs), and imaged using a confocal microscope (Zeiss LSM-710).

AD hippocampus = test: Homing of intravenously injected individual peptide-displaying phages; type: in vivo, mouse; conditions: intravenously injected phage displaying the peptide
Text: FIG. 1B relates to phage titration showing that about 5 times more phage were recovered from the AD hippocampus than from the normal control. In the sequencing, phages displaying the peptides code named CASP (SEQ ID NO: 3; CASPRLSKC), CES (SEQ ID NO: 11, CESPLLSEC), and DAG (SEQ ID NO: 102, CDAGRKQKC) dominated. Hippocampus from age-matched normal wild-type mouse brain was used as a control.

recombinant human CTGF = target: T1, recombinant human CTGF (Homo sapiens, UniProt P29279); test: ELISA binding to recombinant CTGF; conditions: non-labeled DAG 0.5 mM
T1 construct: purchased Affymetrix 14-8503-80
T1 sequence (P29279 253-349 limits assumed): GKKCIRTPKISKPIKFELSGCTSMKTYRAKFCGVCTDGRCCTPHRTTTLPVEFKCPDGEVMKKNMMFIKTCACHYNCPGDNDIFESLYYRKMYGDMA
Description: FIG. 10 is a graphical representation relating to identification of a receptor for DAG. DAG binds to recombinant CTGF. FAM-DAG was incubated on ELISA plate coated with recombinant human CTGF at two different peptide concentrations of the FAM peptide alone (light gray bars), or in the presence of non-labeled DAG (0.5 mM) (dark gray bars). […] DAG was also shown to colocalize with CTGF. FAM-DAG was intravenously injected in 9-month-old hAPP-J20 and WT mice, allowed to circulate for 30 minutes, after which mice were perfused, and the brains were fixed, sectioned and stained for FAM (green) and CTGF (red).
Human CTGF recombinant protein (Affymetrix Cat #14-8503-80) was incubated on Nunc low-binding plates at concentration of 10 μg/ml for overnight at 4° C. Excess protein in the plates was removed by washing with PBS-T (PBS with 0.005% Tween 20). Plates were blocked with 200 μl of 3% non-fat milk in PBS for 1 hour at room temperature and washed with PBS-T once. Biotin-labeled peptide (at different concentrations) in PBS was added to the plate for 2 hours at 37° C. For peptide inhibition, non-labeled DAG peptide (0.5 mM) was added 30 minutes prior to addition of labeled peptide. The plates were washed with 100 μl PBS-T for three times to remove excess peptide. The bound peptide was detected by incubating with 100 μl of Vectastain ABC™ reagent (Vector labs, Burlingame, Calif.) for 30 minutes. The plate was washed with 100 μl PBS-T three times. Next, 100 μl of o-phenylenediamine dihydrochloride (OPD) silver and gold substrate (Sigma-Aldrich) was added to the wells and incubated at room temperature until visible color was observed (˜30 min). Adding 50 μl of 1 M H2SO4 stopped the reaction and the plate was read at 495 nm (FlexStation™ 3 Reader, Molecular Devices, Sunnyvale, Calif., USA).

[3] = Alzheimer's mouse (9-month old J20 hAPP tg)

| Substance | Frequency/% ([1]; Wild-type mouse) [%] | Frequency/% [1, 3] [%] | also measured |
| --- | --- | --- | --- |
| CLSLD [SEQ ID NO: 88] | 2.286 | – | – |
| FAM-CASPRLSKC: fluorescein-amide (FAM)-labeled CASPRLSKC peptide ({FAM}-CASPRLSKC-NH2; cysteine pairing not given here) | – | – | Homing of FAM-labeled peptide to hippocampus [2]: homed to AD, but not normal, hippocampus |
| CEQVRQKRC [SEQ ID NO: 4] | – | 0.3956 | – |
| CLTDNEETC [SEQ ID NO: 7] | – | 0.3341 | – |
| CVPKGKLVLLSL [SEQ ID NO: 86] | 2.377 | – | – |
| CKVRKSEGC [SEQ ID NO: 85] | 3.559 | – | – |
| CELSQ [SEQ ID NO: 97] | 1.089 | – | – |
| CNSKETSRC [SEQ ID NO: 5] | – | 0.3885 | – |
| CVPKGKLVC [SEQ ID NO: 84] | 4.678 | – | – |
| CATPRDKRTC [SEQ ID NO: 87] | 2.373 | – | – |
| CTREGNETC [SEQ ID NO: 96] | 1.098 | – | – |
| CTVNGKRSC [SEQ ID NO: 99] | 0.9707 | – | – |
| CADDGC [SEQ ID NO: 94] | 1.244 | – | – |
| CSGDMETKC [SEQ ID NO: 89] | 1.846 | – | – |
| CASPRLSKC [SEQ ID NO: 3] | – | 0.7226 | Representation in sequenced phage pools, AD versus normal brain [1]: dominated; Phage accumulation in normal brain (AD hippocampus): no accumulation in normal brain; Phage homing to AD hippocampus (AD hippocampus): home to AD hippocampus with high specificity; Homing of FAM-labeled peptide to hippocampus [2]: homed to the dentate gyms of AD brain but not normal brain |
| CRTPLNPRC [SEQ ID NO: 95] | 1.171 | – | – |
| CSPE [SEQ ID NO: 6] | – | 0.3766 | – |
| FAM-DAG: Fluoresceinamine (FAM)-labeled synthetic DAG peptide ({FAM}-CDAGRKQKC-NH2; disulfide 1-9 (inferred); not fully specified) | – | – | Inhibition of CTGF binding by unlabeled DAG (recombinant human CTGF): Non-labeled DAG inhibited the binding of FAM-DAG; Homing of FAM-labeled peptide to hippocampus [2]: specifically homed AD hippocampus |
| CESPLLSEC [SEQ ID NO: 11] | – | 0.316 | Representation in sequenced phage pools, AD versus normal brain [1]: dominated; Phage accumulation in normal brain (AD hippocampus): no accumulation in normal brain; Phage homing to AD hippocampus (AD hippocampus): home to AD hippocampus with high specificity; Homing of FAM-labeled peptide to hippocampus [2]: homed to the dentate gyms of AD brain but not normal brain |
| CSTNA [SEQ ID NO: 93] | 1.426 | – | – |
| CSRTSKQAC [SEQ ID NO: 98] | 1.022 | – | – |
| CRKQGEAKC [reference compound] | – | – | Homing of FAM-labeled peptide to hippocampus [2]: essentially no homing to the hippocampus of hAPP-J20 mice |
| CSGKAQRGC [SEQ ID NO: 100] | – | 0.3349 | – |
| CARVKK [SEQ ID NO: 91] | 1.67 | – | – |
| CSDRRLIDC [SEQ ID NO: 90] | 1.737 | – | – |
| CTKTAK [SEQ ID NO: 10] | – | 0.3191 | – |
| SSVDKL [SEQ ID NO: 9] | – | 0.3223 | – |
| CSKTTE [SEQ ID NO: 2] | – | 0.8549 | – |
| CRKQPTNVC [SEQ ID NO: 92] | 1.495 | – | – |
| FAM-CESPLLSEC: fluorescein-amide (FAM)-labeled CESPLLSEC peptide ({FAM}-CESPLLSEC-NH2; cysteine pairing not given here) | – | – | Homing of FAM-labeled peptide to hippocampus [2]: homed to AD, but not normal, hippocampus |
